Data: PubChem BioAssay AID743229 (The Scripps Research Institute Molecular Screening Center, 2013)
pEC50: −log10 of the molar value.

Target: Trace amine-associated receptor 1 (Homo sapiens) (UniProt Q96RJ0)
Assay: human TAAR1 agonist potency, dose response, cell-based, fluorescence, late stage (AID 743229)
Details: TAAR1-expressing cells, fluorescence agonist read-out

Sequence of Trace amine-associated receptor 1 (Homo sapiens) (Q96RJ0 whole entry, looked up): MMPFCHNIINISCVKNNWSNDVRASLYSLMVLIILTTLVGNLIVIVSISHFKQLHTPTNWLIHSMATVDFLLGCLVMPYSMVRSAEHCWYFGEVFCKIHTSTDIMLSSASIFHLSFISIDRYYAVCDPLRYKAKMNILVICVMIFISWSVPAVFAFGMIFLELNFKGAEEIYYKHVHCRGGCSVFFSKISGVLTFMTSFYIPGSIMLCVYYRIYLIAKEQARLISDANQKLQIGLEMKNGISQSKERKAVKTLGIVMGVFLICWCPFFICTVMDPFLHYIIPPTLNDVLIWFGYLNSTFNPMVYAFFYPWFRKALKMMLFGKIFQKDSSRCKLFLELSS

Compound | pEC50
Nc1nc(Nc2ccccc2)nc2ccccc12 | 6.68
c1ccc(CCn2nnnc2C(c2cccs2)N2CCN(Cc3ccc4c(c3)OCO4)CC2)cc1 (centres undefined) | 6.63
CCOC(=O)C(NC(C)=O)(N1CCc2ccccc2C1)C(F)(F)F (centres undefined) | 7.12
Cc1ccc(NC(=O)CCN2CCc3ccccc3C2)cc1 | 5.90
O=C(Nc1cccnc1)Nc1cccc(F)c1 | 5.48
Nc1nc(Nc2cccc(F)c2)nc2ccccc12 | 6.46
O=C(Nc1ccncc1)Nc1ccc(F)cc1 | 6.06
NC(N)=NN=Cc1c(Cl)cccc1Cl | 6.66
O=C(CCCCl)N1CCc2[nH]c3ccccc3c2C1 | 7.00
Cc1cc(N(C)C)nc(Nc2ccccc2)n1 | 6.74
O=C(Nc1ccccc1)Nc1ccncc1 | 6.09
CC1(C)CCCN(C(=O)c2coc(=O)c(Br)c2)C1 | 6.32
O=C(CCN1CCC(c2ccccc2)C1)c1ccc2c(c1)OCCO2 (centres undefined) | 6.58
O=C(C(=O)N1CCc2ccccc2C1)c1cn(CC(=O)N2CCCCC2)c2ccccc12 | 6.11

More lines, in order of rising pEC50, values ahead:

pEC50 | Compound
6.09 | OCCNc1nc(Nc2ccc(O)cc2)nc2ccccc12
6.47 | O=C(CCN1CCc2ccccc2CC1)c1ccc2c(c1)OCCO2
6.53 | c1ccc2c3c([nH]c2c1)CCNC3
6.56 | c1ccc2c(c1)CCN(c1nc3cc4c(cc3s1)OCO4)C2
6.59 | OCCNc1nc(Nc2cccc(O)c2)nc2ccccc12
6.77 | Cc1cc(C)n(C(CC(=O)N2CCc3ccccc3C2)C(=O)O)n1 (centres undefined)
6.97 | O=C(CCN1CCC(c2ccccc2)C1)c1cccs1 (centres undefined)
7.07 | COc1cc(C(=O)CCN2CCC(c3ccccc3)C2)cc(OC)c1OC (centres undefined)
7.37 | CCOC(=O)C(NC(=O)CC)(N1CCc2ccccc2C1)C(F)(F)F (centres undefined)
7.44 | CC(=NCCc1ccccc1)C1CCOC1=O (centres undefined)
